The values that follow come from publication PMC2880701 (Journal of the American Chemical Society, 2009).

In one assay the target is HDAC2 (Homo sapiens, UniProt Q92769). It is filed as biochemical. Particulars: read-out: HDAC inhibitory activity IC50, HDAC2.
The next assay addresses HDAC1 (Homo sapiens, UniProt Q13547). Nature of the assay: homogeneous trypsin-coupled fluorigenic HDAC assay, HDAC1. Particulars: isostere versus corresponding depsipeptide natural product (active thiol forms).

Chain of HDAC1 (Q13547 whole entry): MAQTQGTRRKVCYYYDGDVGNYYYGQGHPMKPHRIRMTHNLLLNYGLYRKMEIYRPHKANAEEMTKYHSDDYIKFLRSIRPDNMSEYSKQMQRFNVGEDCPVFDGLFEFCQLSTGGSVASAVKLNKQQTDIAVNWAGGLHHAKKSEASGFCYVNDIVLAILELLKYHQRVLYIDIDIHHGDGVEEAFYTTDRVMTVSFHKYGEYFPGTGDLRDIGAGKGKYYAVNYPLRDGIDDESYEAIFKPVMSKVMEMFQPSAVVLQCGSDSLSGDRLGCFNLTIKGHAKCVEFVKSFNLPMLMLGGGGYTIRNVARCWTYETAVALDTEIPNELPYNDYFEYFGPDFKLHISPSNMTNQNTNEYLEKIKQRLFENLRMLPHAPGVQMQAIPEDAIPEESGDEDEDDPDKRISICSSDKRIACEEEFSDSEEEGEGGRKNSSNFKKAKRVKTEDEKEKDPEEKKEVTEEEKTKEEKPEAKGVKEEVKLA
Chain of HDAC2 (Q92769 whole entry): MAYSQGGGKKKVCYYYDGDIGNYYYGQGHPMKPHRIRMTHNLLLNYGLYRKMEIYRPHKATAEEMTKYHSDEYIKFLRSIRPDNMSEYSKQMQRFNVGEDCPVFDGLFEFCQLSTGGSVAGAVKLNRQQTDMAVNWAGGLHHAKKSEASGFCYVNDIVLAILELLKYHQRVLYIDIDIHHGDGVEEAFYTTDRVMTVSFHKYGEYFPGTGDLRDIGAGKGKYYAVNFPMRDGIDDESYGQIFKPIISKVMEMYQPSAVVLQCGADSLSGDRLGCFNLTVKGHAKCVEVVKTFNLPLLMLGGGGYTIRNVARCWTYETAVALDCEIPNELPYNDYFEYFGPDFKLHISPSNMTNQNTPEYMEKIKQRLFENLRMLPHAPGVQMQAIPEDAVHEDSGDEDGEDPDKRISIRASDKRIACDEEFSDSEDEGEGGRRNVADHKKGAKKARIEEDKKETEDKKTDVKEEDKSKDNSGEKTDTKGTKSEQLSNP

`CCCCCCCC(=O)SCC/C=C/[C@@H]1CC(=O)NCc2nc(cs2)C2=N[C@@](C)(CS2)C(=O)N[C@@H](C(C)C)C(=O)N1` [Largazole Isostere (11)]: the IC50 – broadly, the concentration needed to halve the response being measured – on HDAC2 is greater than 3000 nM. As for `CC(C)[C@@H]1NC(=O)[C@]2(C)CSC(=N2)c2csc(n2)CNC(=O)C[C@@H](/C=C/CCS)NC1=O` [Largazole Isostere Thiol (31)], the “fold less potent against HDAC1 than the parent natural product” value at HDAC1 was 9 fold.
